Source: patent publication US10945986B2, “Treatment for ischemic stroke” (CHS Pharma, Inc., priority 2012, dated 2021)

B1: granulocyte colony-stimulating factor (protein, UniProt P09919 31-207, looked up)
Granulocyte …: TPLGPASSLPQSFLLKCLEQVRKIQGDGAALQEKLVSECATYKLCHPEELVLLGHSLGIPWAPLSSCPSQALQLAGCLSQLHSGLFLYQGLLQALEGISPELGPTLDTLQLDVADFATTIWQQMEELGMAPALQPTQGAMPAFASAFQRRAGGVLVASHLQSFLEVSYRVLRHLAQP
notes: granulocyte colony-stimulating factor; a stem cell enhancer and facilitator

Assays:
Bcl-2 = assay: Western blot of Bcl-2 in core and penumbra, MCAO model; assay type: in vivo, rat
[1] = system: middle cerebral artery occlusion (MCAO) stroke-induced brain infarction; assay: MCAO rat stroke model, infarct size by TTC staining; assay type: in vivo, Sprague-Dawley rats; settings: for reduction of ischemia-induced brain infarct size: DETC-MeSO 5.6 mg/kg i.p. 24 hr post MCAO/reperfusion, 8 animals; for effect of individual drug on ischemia-induced infarct size: individual drug at 1/10 dose (G-CSF 10 ug/kg; DETC-MeSO 0.56 mg/kg; sulindac 0.2 mg/kg), 24 hrs post MCAO
P-IRE-1 = P-IRE-1 expression (Western blot) in primary neuronal cultures subjected to hypoxia and reoxygenation; assay type: cell-based; settings: 24 hours hypoxia, 16 hours reoxygenation; densitometry vs actin
Method: (§1) Primary neuronal cultures were subjected to 24 hours of hypoxia followed by 16 hours of reoxygenation and cells were harvested for protein extraction and Western blot analysis for expression of P-IRE-1. Levels of P-IRE-1 were quantified by densitometry and expressed as a percentage of the signal for actin control samples.

[2] = system: C/EBP homologues protein (CHOP); assay: CHOP expression (Western blot) in primary neuronal cultures subjected to hypoxia and reoxygenation; assay type: cell-based; settings: 24 hours hypoxia, 16 hours reoxygenation; densitometry vs actin
Method: as §1, with “CHOP.” for “P-IRE-1.”, “CHOP” for “P-IRE-1”

Hsp27 = assay: Western blot of Hsp27 in core and penumbra, MCAO model; assay type: in vivo, rat; settings: DETC-MeSO treatment prior to MCAO surgery and reperfusion, N=8
Description: Western blotting on the core and the penumbra tissue of both hemispheres was employed for analysis of the expression of key proteins involved in apoptosis (Bcl-2), and cell protection and survival e.g., two heat shock proteins (HSP27, HSP70) and AKT.

pAKT = settings: rat, in vivo
JNK = settings: rat, in vivo
CHOP = assay: Western blot of CHOP, MCAO model; assay type: in vivo, rat; settings: G-CSF, Western blotting

Row | Molecule | Bcl-2 expression vs non-treated control animals (Bcl-2; DETC-MeSO treatment prior to MCAO surgery and reperfusion, core and penumbra, N=8) | infarct size as % of the area of the infarcts in the no-drug control group ([1]; 2 injections: 60 minutes before ischemia and 20 minutes before start of reperfusion, TTC) | reduction of ischemia-induced brain infarct size ([1]; daily, 4 days) | reduction of ischemia-induced brain infarct size ([1]; daily, 8 days) | brain infarct size (morphological observation, TTC) ([1]; DETC-MeSO 5.6 mg/kg intraperitoneal 24 hr post MCAO/reperfusion, daily, both 4 and 8 days) | brain infarct size ([1]; DETC-MeSO 5.6 mg/kg one hour before MCAO surgery and reperfusion, continued 4 days, sacrificed 4th day, 1% TTC) | decrease in infarct size compared with the no-drug treated group ([1]; DETC-MeSO 5.6 mg/kg pre-MCAO, 4 days, at 6 mm from frontal pole, N=21) | brain infarct size compared to the control group ([1]; DETC-MeSO 1-7 mg, two injections (1 hr before MCAO surgery, day 11), sacrificed 11th day, 1% TTC) | effect of individual drug on ischemia-induced infarct size ([1]; 8 days) | P-IRE-1 expression of hypoxia cells compared to DETC-MeSO-treated cells subjected to hypoxia (P-IRE-1) | CHOP expression of hypoxia cells compared to DETC-MeSO-treated cells subjected to hypoxia [2] | Hsp-27 expression vs non-treated control animals (Hsp27) | Bcl-2 expression (pro-survival/anti-apoptotic marker) (Bcl-2; rat, in vivo) | pAKT expression (pro-survival/anti-apoptotic marker) (pAKT) | JNK expression (pro-survival/anti-apoptotic marker) (JNK) | ischemia-induced brain infarct size vs non-treated control animals ([1]; G-CSF 50 μg/kg, 24 hours post ischemia) | infarct volume vs control group ([1]; G-CSF 50 μg/kg, 24 hours post ischemia, n=5) | percentage of infarct volume in entire brain vs control group ([1]; G-CSF 50 μg/kg, 24 hours post ischemia, n=5, P<0.05) | CHOP expression (pro-apoptotic protein) (CHOP)
1 | CCN(CC)C(=O)[S+](C)[O-] (stereo not drawn) [DETC-MeSO, S-methyl-N, N-diethylthiolcarbamate sulfoxide] | significantly increased | 29% | 64+/−11% | 61+/−7% | significantly reduced | significantly reduced | 50% | significantly reduced | no significant effect | 3-3.5 times | about double | significantly increased | – | – | – | – | – | – | –
2 | B1 | – | – | – | – | – | – | – | – | no significant effect | – | – | – | up-regulation | up-regulation | up-regulation | greatly reduced | significantly reduced | significantly reduced | down-regulation
